Each structure is given as a SMILES string. Like-named read-outs stand apart in the source and are kept apart here.

The record followed here is US6894062B1, “Quinoline derivatives” (Pfizer Inc., priority 2002, dated 2005).

This experiment deals with T1, Rat 5HT7 Receptors (Rattus norvegicus, UniProt P32305).
T1 construct: expressed in transfected cells; host or cells: HEK-293
Put plainly: 3H-5-Carboxamidotryptamine (3H-5-CT) binding to rat 5HT7 receptors expressed in HEK-293 cells. Here is the method: The affinities of the active compounds for 5HT7 receptors can be determined using standard radioligand binding assays as described in the literature. The 5HT7 affinity can be measured using the following procedure.
^3H-5-Carboxamidotryptamine (^3H-5-CT) Binding to Rat 5HT7 Receptors Expressed in HEK-293 Cells: […]
Nonspecific binding is determined using 1 uM 5-HT creatinine sulfate. […] Radioactivity is quantified by liquid scintillation counting using a BetaPlate counter (LKB).
The percent inhibition of specific binding is calculated for each concentration of test compound. […] Ki values are calculated according to Cheng & Prusoff: Ki=IC50/(1+(L/Kd)), where L is the concentration of the radioligand used in the experiment and the Kd value is the dissociation constant for the radioligand determined in separate saturation experiments. […]

T1 sequence (P32305 whole entry): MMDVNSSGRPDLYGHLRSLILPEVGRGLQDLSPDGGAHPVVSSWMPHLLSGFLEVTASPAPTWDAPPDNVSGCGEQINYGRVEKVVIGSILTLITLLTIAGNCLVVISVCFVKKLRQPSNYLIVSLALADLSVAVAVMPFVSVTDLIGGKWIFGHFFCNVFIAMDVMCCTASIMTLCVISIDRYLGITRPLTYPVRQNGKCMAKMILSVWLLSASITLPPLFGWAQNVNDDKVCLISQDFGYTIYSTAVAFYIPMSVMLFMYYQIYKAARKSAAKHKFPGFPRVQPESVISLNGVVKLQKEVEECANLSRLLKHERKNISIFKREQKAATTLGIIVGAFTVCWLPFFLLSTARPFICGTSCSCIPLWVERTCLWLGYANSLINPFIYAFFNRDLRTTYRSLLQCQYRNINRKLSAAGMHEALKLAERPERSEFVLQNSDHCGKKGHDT

Usually Ki stands for the dissociation constant of the complex between target and ligand, obtained from inhibition or displacement. Compound `Cc1cnc2c(C3CCCNC3)cccc2c1` (racemic) [Example 8, 3-Methyl-8-Piperidin-3-yl-Quinoline] showed a Ki of roughly 7.6 nM.

Take `CCc1cnc2cc(C3CCCNC3)ccc2c1` (racemic) [Example 10, 3-Ethyl-7-Piperidin-3-yl-Quinoline]: the Ki (3H-5-CT 0.4 nM radioligand, HEK-293 cell membranes expressing rat 5HT7, Cheng & Prusoff, read-out: Ki) is roughly 500 nM.
